According to paper PMC3282187 (Neuron, 2012):

Test system: neurons of the locus coeruleus (LC); mu opioid receptor-coupled K^+ channels
Format: cell-based, rat

Molecule	effect on responses to uncaging stimuli	effect on residual Ba^2+-insensitive outward current
CC1(C)[C@@H](OC(=O)CCC(=O)O)CC[C@]2(C)[C@H]3C(=O)C=C4[C@@H]5C[C@@](C)(C(=O)O)CC[C@]5(C)CC[C@@]4(C)[C@]3(C)CC[C@@H]12 [carbenoxolone]	not significantly attenuated	–
Nc1ccncc1 [4-AP]	–	unable to block or occlude
ZD7288	–	unable to block or occlude
